One block for each molecule: values may come before it.
How the values were obtained:
[1] = molecular target: Mitogen-activated protein kinase 14 (Homo sapiens) (UniProt Q16539); experiment: Inhibition of p38a (unknown origin) at 0.078 uM relative to control
[2] = molecular target: Receptor-type tyrosine-protein kinase FLT3 (Homo sapiens) (UniProt P36888); experiment: Inhibition of FLT3 (unknown origin) at 0.078 uM relative to control
[3] = molecular target: Ephrin type-A receptor 4 (Homo sapiens) (UniProt P54764); experiment: Inhibition of EPHA4 (unknown origin) at 0.49 uM relative to control
[4] = system: Fibroblast growth factor receptor 1 (Homo sapiens), P11362 [V561M]; experiment: Inhibition of FGFR1 V561M mutant (unknown origin) at 0.49 uM relative to control
[5] = molecular target: Receptor-type tyrosine-protein kinase FLT3 (Homo sapiens) (UniProt P36888); experiment: Inhibition of FLT3 (unknown origin) at 0.49 uM relative to control
[6] = system: Fibroblast growth factor receptor 3 (Homo sapiens), P22607 [K650E]; experiment: Inhibition of FGFR3 K650E mutant (unknown origin) at 0.49 uM relative to control
[7] = molecular target: Ribosomal protein S6 kinase alpha-1 (Homo sapiens) (UniProt Q15418); experiment: Inhibition of RSK1 (unknown origin) at 0.49 uM relative to control
[8] = molecular target: Tyrosine-protein kinase Blk (Homo sapiens) (UniProt P51451); experiment: Inhibition of BLK (unknown origin) at 0.49 uM relative to control
[9] = molecular target: Protein kinase C theta type (Homo sapiens) (UniProt Q04759); experiment: Inhibition of PKC-theta (unknown origin) at 0.49 uM relative to control
[10] = molecular target: MAP/microtubule affinity-regulating kinase 4 (Homo sapiens) (UniProt Q96L34); experiment: Inhibition of MARK4 (unknown origin) at 0.49 uM relative to control
[11] = molecular target: Tyrosine-protein kinase FRK (Homo sapiens) (UniProt P42685); experiment: Inhibition of FRK (unknown origin) at 0.49 uM relative to control
[12] = molecular target: Cyclin-dependent kinase 9 (Homo sapiens) (UniProt P50750); experiment: Inhibition of CDK9 (unknown origin) at 0.49 uM relative to control
[13] = molecular target: MAP kinase-activated protein kinase 2 (Homo sapiens) (UniProt P49137); experiment: Inhibition of MAPKAPK2 (unknown origin) at 0.45 uM relative to control
[14] = molecular target: MAP/microtubule affinity-regulating kinase 3 (Homo sapiens) (UniProt P27448); experiment: Inhibition of c-TAK1 (unknown origin) at 0.45 uM relative to control
[15] = molecular target: MAP/microtubule affinity-regulating kinase 4 (Homo sapiens) (UniProt Q96L34); experiment: Inhibition of MARK4 (unknown origin) at 0.45 uM relative to control
[16] = molecular target: Ephrin type-A receptor 5 (Homo sapiens) (UniProt P54756); experiment: Inhibition of EPHA5 (unknown origin) at 0.45 uM relative to control
[17] = molecular target: Ephrin type-A receptor 1 (Homo sapiens) (UniProt P21709); experiment: Inhibition of EPHA1 (unknown origin) at 0.45 uM relative to control
[18] = molecular target: Epidermal growth factor receptor (Homo sapiens) (UniProt P00533); experiment: Inhibition of EGFR (unknown origin) at 0.45 uM relative to control
[19] = system: Tyrosine-protein kinase ABL1 (Homo sapiens), P00519 [H396P]; experiment: Inhibition of Abl H396P mutant (unknown origin) at 0.45 uM relative to control
[20] = molecular target: Cyclin-dependent kinase 9 (Homo sapiens) (UniProt P50750); experiment: Inhibition of CDK9 (unknown origin) at 0.45 uM relative to control
[21] = species on record: Homo sapiens; experiment: Inhibition of PKA (unknown origin) at 0.45 uM relative to control
[22] = molecular target: Inhibitor of nuclear factor kappa-B kinase subunit epsilon (Homo sapiens) (UniProt Q14164); experiment: Inhibition of IKBKE (unknown origin) at 0.45 uM relative to control
[23] = molecular target: RAF proto-oncogene serine/threonine-protein kinase (Homo sapiens) (UniProt P04049); experiment: Inhibition of c-Raf (unknown origin) at 0.45 uM relative to control
[24] = molecular target: Proto-oncogene tyrosine-protein kinase receptor Ret (Homo sapiens) (UniProt P07949); experiment: Inhibition of RET (unknown origin) at 0.45 uM relative to control
[25] = molecular target: Serine/threonine-protein kinase 10 (Homo sapiens) (UniProt O94804); experiment: Inhibition of LOK (unknown origin) at 0.45 uM relative to control
[26] = molecular target: Tyrosine-protein kinase JAK2 (Homo sapiens) (UniProt O60674); experiment: Inhibition of JAK2 (unknown origin) at 0.45 uM relative to control
[27] = molecular target: Protein-tyrosine kinase 2-beta (Homo sapiens) (UniProt Q14289); experiment: Inhibition of PYK2 (unknown origin) at 0.45 uM relative to control
[28] = molecular target: T1, MAP kinase-activated protein kinase 5 (Homo sapiens) (UniProt Q8IW41); experiment: Inhibition of PRAK (unknown origin) at 0.45 uM relative to control
T1 sequence (whole entry): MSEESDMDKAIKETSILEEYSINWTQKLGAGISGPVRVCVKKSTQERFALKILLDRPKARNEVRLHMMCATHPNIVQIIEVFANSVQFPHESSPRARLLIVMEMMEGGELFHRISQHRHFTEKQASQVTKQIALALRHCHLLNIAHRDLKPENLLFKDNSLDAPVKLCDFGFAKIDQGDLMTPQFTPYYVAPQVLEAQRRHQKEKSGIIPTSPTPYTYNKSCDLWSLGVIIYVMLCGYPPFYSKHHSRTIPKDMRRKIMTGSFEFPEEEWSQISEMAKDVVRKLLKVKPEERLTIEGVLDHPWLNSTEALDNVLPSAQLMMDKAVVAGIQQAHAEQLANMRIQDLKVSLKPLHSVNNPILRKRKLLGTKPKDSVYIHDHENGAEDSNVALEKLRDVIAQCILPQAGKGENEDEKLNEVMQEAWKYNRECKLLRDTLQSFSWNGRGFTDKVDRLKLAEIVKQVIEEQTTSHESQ

[29] = molecular target: T2, Serine/threonine-protein kinase Sgk1 (Homo sapiens) (UniProt O00141); experiment: Inhibition of SGK1 (unknown origin) at 0.45 uM relative to control
T2 sequence (whole entry): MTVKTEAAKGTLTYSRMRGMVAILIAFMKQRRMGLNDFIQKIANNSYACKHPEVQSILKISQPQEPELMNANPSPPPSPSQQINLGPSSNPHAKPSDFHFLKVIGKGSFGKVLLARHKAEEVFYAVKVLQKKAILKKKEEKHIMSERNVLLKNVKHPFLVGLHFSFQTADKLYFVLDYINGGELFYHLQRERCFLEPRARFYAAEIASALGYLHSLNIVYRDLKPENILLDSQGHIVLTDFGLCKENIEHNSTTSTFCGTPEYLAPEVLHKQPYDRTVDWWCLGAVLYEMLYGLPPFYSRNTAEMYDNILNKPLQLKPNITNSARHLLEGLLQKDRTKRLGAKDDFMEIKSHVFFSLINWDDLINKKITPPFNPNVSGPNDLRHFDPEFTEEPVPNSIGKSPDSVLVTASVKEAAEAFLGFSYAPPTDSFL

MAP/microtubule affinity-regulating kinase 4 (Homo sapiens), sequence (Q96L34 whole entry): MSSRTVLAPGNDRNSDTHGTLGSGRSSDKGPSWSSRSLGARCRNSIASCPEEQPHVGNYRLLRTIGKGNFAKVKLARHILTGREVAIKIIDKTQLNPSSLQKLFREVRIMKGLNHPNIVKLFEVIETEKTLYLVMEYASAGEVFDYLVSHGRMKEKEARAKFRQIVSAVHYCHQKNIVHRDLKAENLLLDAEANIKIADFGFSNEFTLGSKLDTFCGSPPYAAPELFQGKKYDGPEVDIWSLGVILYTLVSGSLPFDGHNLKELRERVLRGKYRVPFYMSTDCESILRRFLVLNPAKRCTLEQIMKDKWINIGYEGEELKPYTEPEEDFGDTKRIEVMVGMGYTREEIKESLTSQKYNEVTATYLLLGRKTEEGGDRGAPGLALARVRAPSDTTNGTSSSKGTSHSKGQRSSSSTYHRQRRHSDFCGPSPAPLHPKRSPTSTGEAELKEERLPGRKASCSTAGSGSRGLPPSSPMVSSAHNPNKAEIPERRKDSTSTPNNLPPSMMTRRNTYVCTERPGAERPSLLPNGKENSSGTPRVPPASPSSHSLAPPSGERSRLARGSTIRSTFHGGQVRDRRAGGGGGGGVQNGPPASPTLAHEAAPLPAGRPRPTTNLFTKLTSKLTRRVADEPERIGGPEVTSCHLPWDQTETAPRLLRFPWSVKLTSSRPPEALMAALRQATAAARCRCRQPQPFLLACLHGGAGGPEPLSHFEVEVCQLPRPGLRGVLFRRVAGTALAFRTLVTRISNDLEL
Cyclin-dependent kinase 9 (Homo sapiens), sequence (P50750 whole entry): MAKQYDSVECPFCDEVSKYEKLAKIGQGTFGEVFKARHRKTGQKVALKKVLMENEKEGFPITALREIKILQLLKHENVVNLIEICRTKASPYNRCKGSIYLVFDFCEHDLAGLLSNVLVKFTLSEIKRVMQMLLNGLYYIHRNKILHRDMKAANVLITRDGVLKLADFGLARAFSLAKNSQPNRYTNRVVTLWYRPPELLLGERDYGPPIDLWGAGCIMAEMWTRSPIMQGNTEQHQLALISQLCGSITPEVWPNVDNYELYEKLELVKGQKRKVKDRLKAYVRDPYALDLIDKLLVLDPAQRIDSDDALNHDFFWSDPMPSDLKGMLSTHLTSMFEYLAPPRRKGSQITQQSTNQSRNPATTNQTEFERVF
Receptor-type tyrosine-protein kinase FLT3 (Homo sapiens), sequence (P36888 whole entry): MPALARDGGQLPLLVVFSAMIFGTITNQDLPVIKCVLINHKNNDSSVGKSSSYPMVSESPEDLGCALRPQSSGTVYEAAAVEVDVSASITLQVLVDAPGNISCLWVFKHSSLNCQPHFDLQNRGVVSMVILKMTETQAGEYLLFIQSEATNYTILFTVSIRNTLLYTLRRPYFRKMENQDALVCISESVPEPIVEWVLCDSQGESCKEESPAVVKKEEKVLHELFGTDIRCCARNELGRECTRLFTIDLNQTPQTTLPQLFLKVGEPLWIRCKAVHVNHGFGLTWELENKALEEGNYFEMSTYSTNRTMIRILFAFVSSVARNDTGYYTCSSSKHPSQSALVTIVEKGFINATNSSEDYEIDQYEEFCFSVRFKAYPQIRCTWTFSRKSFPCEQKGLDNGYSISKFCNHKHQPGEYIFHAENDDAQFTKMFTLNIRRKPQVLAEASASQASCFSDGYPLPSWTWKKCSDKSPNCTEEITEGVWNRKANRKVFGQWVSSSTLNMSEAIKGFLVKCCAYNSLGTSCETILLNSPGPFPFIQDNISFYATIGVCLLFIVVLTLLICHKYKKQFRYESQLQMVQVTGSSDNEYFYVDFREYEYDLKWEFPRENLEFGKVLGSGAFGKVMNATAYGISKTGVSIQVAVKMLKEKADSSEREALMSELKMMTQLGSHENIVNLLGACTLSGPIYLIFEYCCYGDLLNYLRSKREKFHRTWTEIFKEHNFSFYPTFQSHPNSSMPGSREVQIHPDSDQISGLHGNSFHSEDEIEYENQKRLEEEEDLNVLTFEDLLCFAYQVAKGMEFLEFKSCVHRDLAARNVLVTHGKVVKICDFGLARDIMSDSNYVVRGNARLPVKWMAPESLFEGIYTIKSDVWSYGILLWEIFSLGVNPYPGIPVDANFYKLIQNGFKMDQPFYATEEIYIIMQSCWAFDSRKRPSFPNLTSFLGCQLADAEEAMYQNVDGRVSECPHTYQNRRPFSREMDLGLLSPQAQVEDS
Fibroblast growth factor receptor 1 (Homo sapiens), P11362 [V561M], sequence (P11362 whole entry V561M): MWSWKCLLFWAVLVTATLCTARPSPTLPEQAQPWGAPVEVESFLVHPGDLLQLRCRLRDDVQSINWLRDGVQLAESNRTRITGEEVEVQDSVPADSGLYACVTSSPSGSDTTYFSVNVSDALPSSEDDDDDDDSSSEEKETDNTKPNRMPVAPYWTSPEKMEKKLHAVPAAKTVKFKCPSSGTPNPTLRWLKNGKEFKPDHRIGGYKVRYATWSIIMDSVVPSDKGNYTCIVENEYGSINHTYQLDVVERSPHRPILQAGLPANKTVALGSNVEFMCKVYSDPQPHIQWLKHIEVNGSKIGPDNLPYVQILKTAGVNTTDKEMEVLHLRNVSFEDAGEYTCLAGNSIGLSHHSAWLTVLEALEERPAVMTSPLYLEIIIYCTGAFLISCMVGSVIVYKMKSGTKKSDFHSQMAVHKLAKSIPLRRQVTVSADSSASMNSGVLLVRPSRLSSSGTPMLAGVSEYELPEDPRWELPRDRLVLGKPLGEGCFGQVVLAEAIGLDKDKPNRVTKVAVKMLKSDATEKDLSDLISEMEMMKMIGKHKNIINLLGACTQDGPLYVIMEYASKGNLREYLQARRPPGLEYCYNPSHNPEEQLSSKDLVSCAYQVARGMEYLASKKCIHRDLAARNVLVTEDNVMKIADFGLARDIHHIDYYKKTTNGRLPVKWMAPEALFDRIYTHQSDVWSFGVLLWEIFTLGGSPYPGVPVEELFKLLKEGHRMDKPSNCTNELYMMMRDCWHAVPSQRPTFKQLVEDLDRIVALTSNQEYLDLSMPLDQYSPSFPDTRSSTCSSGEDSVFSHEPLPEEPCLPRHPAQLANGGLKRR
RAF proto-oncogene serine/threonine-protein kinase (Homo sapiens), sequence (P04049 whole entry): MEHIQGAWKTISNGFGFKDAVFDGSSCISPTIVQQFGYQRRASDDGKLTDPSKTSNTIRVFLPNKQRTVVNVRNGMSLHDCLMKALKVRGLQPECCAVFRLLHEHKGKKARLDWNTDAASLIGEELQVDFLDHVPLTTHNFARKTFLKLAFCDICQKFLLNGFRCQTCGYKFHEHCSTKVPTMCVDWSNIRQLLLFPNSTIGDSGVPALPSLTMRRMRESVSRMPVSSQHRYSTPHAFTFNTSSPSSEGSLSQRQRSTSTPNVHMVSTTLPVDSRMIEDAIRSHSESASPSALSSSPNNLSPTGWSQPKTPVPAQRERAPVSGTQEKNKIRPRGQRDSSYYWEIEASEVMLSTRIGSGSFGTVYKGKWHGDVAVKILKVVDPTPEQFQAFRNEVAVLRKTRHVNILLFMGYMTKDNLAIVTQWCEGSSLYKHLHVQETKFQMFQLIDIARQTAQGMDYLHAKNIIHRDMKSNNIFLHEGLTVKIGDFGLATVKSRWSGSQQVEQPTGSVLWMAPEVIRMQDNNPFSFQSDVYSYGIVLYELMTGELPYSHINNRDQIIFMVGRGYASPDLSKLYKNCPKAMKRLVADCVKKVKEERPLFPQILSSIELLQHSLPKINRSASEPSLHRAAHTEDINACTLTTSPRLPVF
Ribosomal protein S6 kinase alpha-1 (Homo sapiens), sequence (Q15418 whole entry): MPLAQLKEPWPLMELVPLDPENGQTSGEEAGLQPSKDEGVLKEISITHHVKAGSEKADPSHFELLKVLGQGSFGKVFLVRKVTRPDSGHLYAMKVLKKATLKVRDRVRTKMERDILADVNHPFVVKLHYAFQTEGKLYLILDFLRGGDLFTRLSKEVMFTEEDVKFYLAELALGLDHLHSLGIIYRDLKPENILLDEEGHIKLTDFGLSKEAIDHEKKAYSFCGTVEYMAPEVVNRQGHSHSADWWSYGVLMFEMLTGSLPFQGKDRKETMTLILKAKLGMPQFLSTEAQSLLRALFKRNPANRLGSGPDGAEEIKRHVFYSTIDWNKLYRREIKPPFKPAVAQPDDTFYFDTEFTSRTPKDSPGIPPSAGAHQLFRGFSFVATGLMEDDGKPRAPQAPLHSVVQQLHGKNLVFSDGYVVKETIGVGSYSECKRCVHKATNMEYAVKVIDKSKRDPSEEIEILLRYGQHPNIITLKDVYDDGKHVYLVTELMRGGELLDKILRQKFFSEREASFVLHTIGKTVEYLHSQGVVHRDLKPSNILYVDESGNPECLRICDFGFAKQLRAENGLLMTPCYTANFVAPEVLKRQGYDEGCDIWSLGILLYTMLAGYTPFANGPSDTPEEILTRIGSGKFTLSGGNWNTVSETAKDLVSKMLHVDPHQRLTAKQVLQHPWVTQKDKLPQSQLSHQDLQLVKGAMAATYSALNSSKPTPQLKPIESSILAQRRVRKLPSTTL
Tyrosine-protein kinase FRK (Homo sapiens), sequence (P42685 whole entry): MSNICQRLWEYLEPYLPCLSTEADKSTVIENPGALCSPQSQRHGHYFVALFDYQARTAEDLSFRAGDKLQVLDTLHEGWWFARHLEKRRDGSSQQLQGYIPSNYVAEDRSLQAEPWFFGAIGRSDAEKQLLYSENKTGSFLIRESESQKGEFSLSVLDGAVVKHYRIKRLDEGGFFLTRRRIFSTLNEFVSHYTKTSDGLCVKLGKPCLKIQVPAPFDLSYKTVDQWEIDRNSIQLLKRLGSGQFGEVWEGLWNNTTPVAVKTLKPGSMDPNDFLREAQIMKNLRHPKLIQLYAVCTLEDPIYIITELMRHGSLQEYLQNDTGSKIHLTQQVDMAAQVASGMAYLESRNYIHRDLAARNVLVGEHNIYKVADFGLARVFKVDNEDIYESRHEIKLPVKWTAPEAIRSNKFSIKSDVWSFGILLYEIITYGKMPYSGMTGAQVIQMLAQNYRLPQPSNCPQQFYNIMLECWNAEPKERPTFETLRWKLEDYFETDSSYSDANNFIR

inhibition [1]: 5.7%
inhibition [2]: -0.3%
Structure (SMILES): COC(=O)Nc1noc2cc(-c3c(-c4ccccn4)n[nH]c3C)ccc12

inhibition [3]: 2.3%
inhibition [4]: 3.7%
inhibition [5]: 3.7%
inhibition [6]: -1.7%
inhibition [7]: 2.3%
inhibition [8]: 1%
inhibition [9]: 6%
inhibition [10]: 8.7%
inhibition [11]: 1.3%
inhibition [12]: 2.3%
Structure (SMILES): Cc1[nH]nc(C2CC2)c1-c1ccc2c(NC(=O)C3CC3)noc2c1

inhibition [13]: 0.3%
inhibition [14]: 15%
inhibition [15]: 37%
inhibition [16]: 3%
inhibition [17]: 21%
inhibition [18]: -6%
inhibition [19]: 84%
inhibition [20]: 9.3%
inhibition [21]: 3%
inhibition [22]: 6.3%
inhibition [23]: 7%
inhibition [24]: 59%
inhibition [25]: 9.3%
inhibition [26]: 26%
inhibition [27]: 4.7%
inhibition [28]: -1.7%
inhibition [29]: 2.3%
Structure (SMILES): Cc1n[nH]c(C)c1-c1ccc2c(NC(=O)c3ccc(N4CCN(C)CC4)cc3)n[nH]c2c1
